In ChEMBL document CHEMBL4373693, “Virtual Screening Approach and Investigation of Structure-Activity Relationships To Discover Novel Bacterial Topoisomerase Inhibitors Targeting Gram-Positive and Gram-Negative Pathogens” (J Med Chem, 2019):
Converted amounts (≈) assume the structure as drawn. Values belong to the compound of their own block, whether it stands above or below them.

Legend:
[1] = system: Staphylococcus aureus; assay: Antibacterial activity against Staphylococcus aureus; type: functional
[2] = target: T1, DNA gyrase (Escherichia coli, UniProt P0AES4+P0AES6); assay: Inhibition of Escherichia coli DNA gyrase; type: protein-complex assay
[3] = system: Escherichia coli; assay: Antibacterial activity against Escherichia coli; type: functional
[4] = Inhibition of Escherichia coli DNA topoisomerase 4
[5] = system: Enterococcus faecalis; assay: Antibacterial activity against vancomycin and teicoplanin-resistant Enterococcus faecalis APV 00409 after 16 to 24 hrs by broth microdilution method; type: functional
[6] = system: Enterococcus faecium; assay: Antibacterial activity against vancomycin resistant and teicoplanin sensitive Enterococcus faecium APV 00420 after 16 to 24 hrs by broth microdilution method; type: functional
[7] = system: Haemophilus influenzae; assay: Antibacterial activity against quinolone-sensitive Haemophilus influenzae H128 after 16 to 24 hrs by broth microdilution method; type: functional
[8] = system: Enterococcus faecalis; assay: Antibacterial activity against vancomycin-sensitive Enterococcus faecalis APV 00623 after 16 to 24 hrs by broth microdilution method; type: functional
[9] = system: Enterococcus faecium; assay: Antibacterial activity against Enterococcus faecium APV 00627 after 16 to 24 hrs by broth microdilution method; type: functional
[10] = system: Enterococcus faecalis; assay: Antibacterial activity against vancomycin and teicoplanin-resistant Enterococcus faecalis APV 00408 after 16 to 24 hrs by broth microdilution method; type: functional
[11] = system: Enterococcus faecalis; assay: Antibacterial activity against Enterococcus faecalis ATCC 29212 after 16 to 24 hrs by broth microdilution method; type: functional
[12] = system: Klebsiella pneumoniae; assay: Antibacterial activity against quinolone-sensitive Klebsiella pneumoniae ATCC 700603 after 16 to 24 hrs by broth microdilution method; type: functional
[13] = system: Enterococcus faecalis; assay: Antibacterial activity against vancomycin-sensitive Enterococcus faecalis APV 00406 after 16 to 24 hrs by broth microdilution method; type: functional
[14] = system: Enterococcus faecium; assay: Antibacterial activity against vancomycin and teicoplanin-resistant Enterococcus faecium APV 00424 after 16 to 24 hrs by broth microdilution method; type: functional
[15] = system: Enterococcus faecalis; assay: Antibacterial activity against vancomycin-sensitive Enterococcus faecalis APV 00404 after 16 to 24 hrs by broth microdilution method; type: functional
[16] = system: Haemophilus influenzae; assay: Antibacterial activity against quinolone-sensitive Haemophilus influenzae ATCC 49766 after 16 to 24 hrs by broth microdilution method; type: functional
[17] = system: Enterococcus faecium; assay: Antibacterial activity against Enterococcus faecium APV 00626 after 16 to 24 hrs by broth microdilution method; type: functional
[18] = system: Enterococcus faecium; assay: Antibacterial activity against vancomycin and teicoplanin-resistant Enterococcus faecium APV 00422 after 16 to 24 hrs by broth microdilution method; type: functional
[19] = system: Enterococcus faecium; assay: Antibacterial activity against vancomycin resistant and teicoplanin sensitive Enterococcus faecium APV 00553 after 16 to 24 hrs by broth microdilution method; type: functional
[20] = system: Escherichia coli; assay: Antibacterial activity against Escherichia coli ATCC 25922 by CLSI method; type: functional
[21] = Inhibition of Escherichia coli topoisomerase 4 after 24 hrs by ATPase assay
[22] = target: T1, DNA gyrase; assay: Inhibition of Escherichia coli DNA gyrase assessed as reduction in enzyme-mediated supercoiling of relaxed plasmid by fluorescence polarization assay; type: protein-complex assay
[23] = target: DNA gyrase subunit A (Staphylococcus aureus, UniProt P20831); assay: Inhibition of Staphylococcus aureus DNA gyrase A assessed as reduction in enzyme-mediated supercoiling of relaxed pBR322 DNA measured after 60 mins by electrophoresis method
[24] = target: DNA topoisomerase 4 subunit A (Staphylococcus aureus, UniProt P0C1U9); assay: Inhibition of Staphylococcus aureus DNA topoisomerase 4 subunit ParC assessed as reduction in decatenation of kinetoplast DNA incubated for 60 mins by ethidium bromide staining based gel electrophoresis method
[25] = target: DNA gyrase subunit A (Escherichia coli K-12, UniProt P0AES4); assay: Inhibition of Escherichia coli DNA gyrase A assessed as reduction in enzyme-mediated supercoiling of relaxed pBR322 DNA measured after 60 mins by electrophoresis method
[26] = target: T2, DNA topoisomerase 4 subunit A (Escherichia coli K-12, UniProt P0AFI2); assay: Inhibition of Escherichia coli DNA topoisomerase 4 subunit ParC assessed as reduction in decatenation of kinetoplast DNA incubated for 60 mins by ethidium bromide staining based gel electrophoresis method
T2 sequence (P0AFI2 whole entry): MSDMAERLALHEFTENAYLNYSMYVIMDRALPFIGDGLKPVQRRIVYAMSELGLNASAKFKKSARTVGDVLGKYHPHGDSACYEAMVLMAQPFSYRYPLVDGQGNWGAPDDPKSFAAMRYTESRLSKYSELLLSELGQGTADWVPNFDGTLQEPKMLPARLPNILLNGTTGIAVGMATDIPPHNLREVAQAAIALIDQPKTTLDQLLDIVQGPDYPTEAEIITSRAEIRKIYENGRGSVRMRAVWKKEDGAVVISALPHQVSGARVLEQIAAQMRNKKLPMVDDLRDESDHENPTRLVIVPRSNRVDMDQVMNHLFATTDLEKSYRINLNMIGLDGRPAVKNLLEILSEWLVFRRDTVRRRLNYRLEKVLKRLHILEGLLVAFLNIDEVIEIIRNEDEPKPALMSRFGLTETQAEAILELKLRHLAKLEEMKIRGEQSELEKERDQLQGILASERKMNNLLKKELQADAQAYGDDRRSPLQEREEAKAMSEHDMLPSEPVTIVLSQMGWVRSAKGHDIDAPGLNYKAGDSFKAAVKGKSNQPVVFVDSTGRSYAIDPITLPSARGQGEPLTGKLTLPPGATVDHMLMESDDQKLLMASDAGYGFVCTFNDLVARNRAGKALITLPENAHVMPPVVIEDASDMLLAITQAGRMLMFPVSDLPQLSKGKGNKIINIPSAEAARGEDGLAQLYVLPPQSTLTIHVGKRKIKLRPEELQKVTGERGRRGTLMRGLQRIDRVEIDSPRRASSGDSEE

Compound: O=c1ccc2ncc(=O)n3c2n1C[C@H]3CN1CCC(NCc2cc3c(cn2)OCCC3)CC1 [GEPOTIDACIN]
MIC90 [1]: 0.5 µg/mL (≈ 1.11 µM)
MIC90 [3]: 4 µg/mL (≈ 8.92 µM)

Compound: CN[C@H](CC(C)C)C(=O)N[C@H]1C(=O)N[C@@H](CC(N)=O)C(=O)N[C@H]2C(=O)N[C@H]3C(=O)N[C@H](C(=O)N[C@H](C(=O)O)c4cc(O)cc(O)c4-c4cc3ccc4O)[C@H](O)c3ccc(c(Cl)c3)Oc3cc2cc(c3O[C@@H]2O[C@H](CO)[C@@H](O)[C@H](O)[C@H]2O[C@H]2C[C@](C)(N)[C@H](O)[C@H](C)O2)Oc2ccc(cc2Cl)[C@H]1O [VANCOMYCIN]
MIC [5]: > 128 µg/mL
MIC [6]: > 8 µg/mL
MIC [7]: > 8 µg/mL
MIC [8]: 2 µg/mL (≈ 1.38 µM)
MIC [9]: > 128 µg/mL
MIC [10]: > 128 µg/mL
MIC [11]: 4 µg/mL (≈ 2.76 µM)
MIC [12]: > 8 µg/mL
MIC [13]: 1 µg/mL (≈ 0.69 µM)
MIC [14]: > 128 µg/mL
MIC [15]: 2 µg/mL (≈ 1.38 µM)
MIC [16]: > 8 µg/mL
MIC [17]: > 128 µg/mL
MIC [18]: > 128 µg/mL
MIC [19]: > 128 µg/mL

Compound: COc1ccc2ncc(F)c([C@@H](O)CC[C@@H]3CCN(CCSc4cccs4)C[C@@H]3C(=O)O)c2c1
IC50 [23]: 1000 nM
IC50 [24]: 18 µM
IC50 [25]: 11 µM
IC50 [26]: 2200 nM

Results, then the compound that gave them:

MIC [1]: 0.12 µg/mL (≈ 0.238 µM)
IC50 [2]: 1660 nM
MIC [3]: 0.12 µg/mL (≈ 0.238 µM)
IC50 [4]: 140 nM
Compound: COc1ccc2c3conc3c(=O)n(CCN3CCC(NCc4ccc5c(n4)NC(=O)CO5)CC3)c2c1

MIC [1]: 1 µg/mL (≈ 2.14 µM)
MIC90 [20]: 2 µg/mL (≈ 4.28 µM)
IC50 [21]: 3 nM
IC50 [22]: 20 nM
Compound: N[C@@H](Cn1c(=O)cnc2ccc(F)cc21)C1CCC(NCc2ncc3c(n2)OCC(=O)N3)CC1 (some centres undefined)
